The values that follow come from PMC10342707, “Identification of Regulatory Molecular “Hot Spots” for LH/PLOD Collagen Glycosyltransferase Activity” (International Journal of Molecular Sciences, 2023).

In test [1] the target is T1, LH3/PLOD3 (Homo sapiens, UniProt O60568).
T1 construct: 6xHis-tag and TEV site; secreted from HEK293-F cells
T1 sequence (O60568 25-738): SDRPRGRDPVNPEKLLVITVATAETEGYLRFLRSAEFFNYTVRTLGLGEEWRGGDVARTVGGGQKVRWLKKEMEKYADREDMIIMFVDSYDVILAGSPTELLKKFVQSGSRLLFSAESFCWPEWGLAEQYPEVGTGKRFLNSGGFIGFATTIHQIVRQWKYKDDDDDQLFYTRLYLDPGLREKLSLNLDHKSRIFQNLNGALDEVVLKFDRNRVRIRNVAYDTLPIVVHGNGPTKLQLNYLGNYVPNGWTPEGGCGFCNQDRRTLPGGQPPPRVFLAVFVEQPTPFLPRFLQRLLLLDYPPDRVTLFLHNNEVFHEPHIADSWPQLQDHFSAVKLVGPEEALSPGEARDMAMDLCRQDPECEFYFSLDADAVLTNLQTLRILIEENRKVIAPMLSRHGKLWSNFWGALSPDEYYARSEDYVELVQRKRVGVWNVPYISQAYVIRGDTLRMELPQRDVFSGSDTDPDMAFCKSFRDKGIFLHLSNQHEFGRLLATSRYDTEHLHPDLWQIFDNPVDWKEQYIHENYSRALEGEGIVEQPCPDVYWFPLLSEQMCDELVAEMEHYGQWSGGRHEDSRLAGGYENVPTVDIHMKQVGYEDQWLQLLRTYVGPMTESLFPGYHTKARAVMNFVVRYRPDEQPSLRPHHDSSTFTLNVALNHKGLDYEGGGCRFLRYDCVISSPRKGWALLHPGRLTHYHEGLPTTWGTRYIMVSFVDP
Put plainly: luminescence-based Glc-T competition assay. To be noted: read-out: UDP-Glc (IC50). It counts as biochemical. From the text: luminescence-based Glc-T competition assay on LH3/PLOD3

Test [2] deals with T1, LH3/PLOD3. The experiment in a line: differential scanning fluorimetry. It counts as binding. The following applies: 50 mM MnCl2, 5 mM ligand, 25 mM HEPES, 500 mM NaCl, pH 8. In general terms: In DSF a fluorescence change marks the thermal transition of the protein.

For the compound `O=C(O)[C@H]1O[C@H](OP(=O)(O)OP(=O)(O)OC[C@H]2O[C@@H](n3ccc(=O)[nH]c3=O)[C@H](O)[C@@H]2O)[C@H](O)[C@@H](O)[C@@H]1O` [UDP-GlcA], at LH3/PLOD3 [1], the half-inhibitory concentration (IC50) (in general, the concentration at which inhibition is half-maximal) was over 10 mM. Further, the thermal shift at LH3/PLOD3 [2] is 1–1.5 °C.
With `O=c1ccn([C@@H]2O[C@H](COP(=O)(O)OP(=O)(O)O[C@H]3OC[C@@H](O)[C@H](O)[C@H]3O)[C@@H](O)[C@H]2O)c(=O)[nH]1` [UDP-Xyl], on LH3/PLOD3 [1], the IC50 came to 3.17 ± 0.211 mM.
Turning to `O=c1ccn([C@@H]2O[C@H](COP(=O)(O)OP(=O)(O)O)[C@@H](O)[C@H]2O)c(=O)[nH]1` [UDP], the thermal shift on LH3/PLOD3 [2] is 3–3.5 °C.
